Source: US20060088598A1, “Intravenous composition, process for producing the same and preparation thereof” (LTT Bio-Pharama Co., Ltd., priority 2002, published 2006)

Columns and labels:
Format in all cases: physicochemical
[1] = Releasing behavior of agent from agent-encapsulated PLGA microparticles in suspension; conditions: 3% BSA-containing PBS at 37° C.; FIG. 3
Protocol: (§1) 30 mg of PLGA (Wako) or PLA (Wako), 3 mg of egg yolk lecithin (Wako), and 1 mg of AS006 or BDP were dissolved in 1 ml of dichloromethane, and microparticles were then produced by the same method as described in Example 1. The obtained microparticles were suspended in distilled water, PBS, or 3% BSA-containing PBS. The suspension was allowed for a certain period of time, and was then centrifuged at 13,000 g for 10 minutes. Thereafter, AS006 or BDP contained in the deposit was assayed by HPLC.

[2] = Encapsulation ratio of agents in PLGA microparticles (HPLC of supernatant and deposit); conditions: FIG. 1; microparticles of Example 1
Protocol: 100 mg of PLGA (Wako) or PLA (Wako), 10 mg of egg yolk lecithin, and 0.5 mg of an agent were dissolved in 1 ml of dichloromethane. While cooling in an ice bath, the obtained solution was slowly added dropwise, through a 27G needle, to 25 ml of distilled water, which was being stirred with Polytron PT-2100 (Kinematica) or an ultrasonic generator (TOMY). After the stirring was continued for 10 minutes, the mixture was further stirred with a stirrer at room temperature for 2 hours. Thereafter, dichloromethane was removed. The obtained microparticles were concentrated by ultra filtration (Amicon, Centriprep YM-10) and were then purified by gel filtration (Pharmacia, PD-10). The thus obtained particles were centrifuged at 13,000 g for 10 minutes, and the agent contained in the supernatant and deposit was assayed by HPLC. HPLC analysis was carried out in a water/acetonitrile system for measuring the absorption at 210 nm or 240 nm using a C4 reverse phase column (Waters, Symmetry 300). With regard to agents, PGE1, and ASO06 produced by esterifying carboxylic acid and a hydroxyl group thereof, were used as prostanoids.

[3] = Releasing behavior after freeze-drying in 10% sucrose; conditions: freeze-dried in 10% sucrose, resuspended in 3% BSA-containing PBS; FIGS. 6 and 7
Protocol: as §1
A 10% stabilizer was added to the PLGA microparticle suspension produced in Example 2, and the suspension was then frozen with acetone/dry ice, followed by performing a freeze-drying treatment. The dried PLGA microparticles were dispersed in water again. Thereafter, the turbidity of the suspension was measured with a spectrophotometer, and the microparticle size thereof was measured with a dynamic light scattering photometer. In addition, the AS006-containing PLGA microparticles produced in Example 4 and the BDP-containing PLGA microparticles produced in Example 2 were freeze-dried in 10% sucrose, and the remaining amount of the agent and the releasing behavior were measured by the method described in Example 2.

[4] = Remaining ratio of agent in PLGA microparticles after 1% SDS or 80% FBS, 37° C., 5 minutes; conditions: with addition of SDS, FIG. 4
Protocol: Each of the agents produced in Example 1 was suspended in 80% FBS (fetal bovine serum) or in a 1% SDS aqueous solution, and the suspension was incubated at 37° C. for 5 minutes. Thereafter, the resultant product was centrifuged at 13,000 g for 10 minutes, and the amount of the agent contained in the deposit was assayed by HPLC.

## CCC(=O)OCC(=O)[C@@]1(OC(=O)CC)[C@@H](C)C[C@H]2[C@@H]3CCC4=CC(=O)C=C[C@]4(C)[C@@]3(F)[C@@H](O)C[C@@]21C [BDP, betamethazone dipropionate]
[1]
  sustained-release behavior: same sustained-release behavior as that of ASO06
[2]
  encapsulation ratio in PLGA microparticle: significantly increased
[3]
  releasing behavior with vs without freeze-drying: same releasing behavior regardless whether or not a freeze-drying treatment had been carried out
[4]
  agent remaining in PLGA: ≥ 80%

## CCCC(=O)O[C@]1(C(=O)COC(=O)CC)CC[C@H]2[C@@H]3CCC4=CC(=O)CC[C@]4(C)[C@H]3[C@@H](O)C[C@@]21C [HBP, hydrocortisone butyrate propionate]
[2]
  encapsulation ratio in PLGA microparticle: significantly increased

## CCCCC[C@H](O)/C=C/[C@H]1[C@H](O)CC(=O)[C@@H]1CCCCCCC(=O)O [PGE1, prostaglandin E1]
[2]
  encapsulation ratio in PLGA microparticle: almost no PGE1 could be encapsulated

## C[C@]12CCC(=O)C=C1CC[C@@H]1[C@@H]2[C@@H](O)C[C@@]2(C)[C@H]1CC[C@]2(O)C(=O)CO [hydrocortisone, Hydrocortisone]
[2]
  encapsulation ratio in PLGA microparticle: almost neither hydrocortisone nor betamethazone could be encapsulated
